According to patent publication US20250361230A1, “LATS Inhibitors and Uses Thereof” (The USA, as Represented by the Secretary, Dept. of Heath …, priority 2022, published 2025):

Tests used:
AKT = AKT (Homo sapiens, UniProt P31749); experiment: RBC HotSpot kinase assay (33P-ATP, P81 filter-binding), AKT; format: biochemical; settings: biochemical kinase inhibition; read-out: AKT IC50
Procedure, shortened: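 IC50 in nM was derived from 10-point, single-replicate titrations. Read-out was radiometric P81 filter binding following a 2 h room-temperature reaction with 33P-ATP, after 20 min compound preincubation.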

[1] = target: T1, AKT Kinase-NanoLuc fusion in HEK-293 cells (Homo sapiens, UniProt P31749); experiment: NanoBRET target engagement assay in transfected HEK-293 cells, AKT; format: cell-based; settings: cellular; read-out: AKT (Cellular) IC50
T1 construct: host or cells: HEK-293
T1 sequence (P31749 whole entry, the tested form may be a part): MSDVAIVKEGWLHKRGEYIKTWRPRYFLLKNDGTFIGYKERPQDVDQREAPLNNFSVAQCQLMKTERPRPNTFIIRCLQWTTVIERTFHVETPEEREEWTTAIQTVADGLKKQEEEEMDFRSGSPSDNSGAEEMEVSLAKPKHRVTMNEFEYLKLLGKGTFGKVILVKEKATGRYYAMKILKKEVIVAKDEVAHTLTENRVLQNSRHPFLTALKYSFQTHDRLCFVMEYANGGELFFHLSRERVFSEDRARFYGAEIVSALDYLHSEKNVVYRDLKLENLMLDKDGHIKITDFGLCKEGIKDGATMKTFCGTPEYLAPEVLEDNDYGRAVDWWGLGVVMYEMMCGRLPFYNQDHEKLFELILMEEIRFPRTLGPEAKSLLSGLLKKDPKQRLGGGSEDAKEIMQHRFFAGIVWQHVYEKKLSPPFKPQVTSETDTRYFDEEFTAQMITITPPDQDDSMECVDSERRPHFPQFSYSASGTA
Procedure, shortened: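 HEK-293 cells transiently transfected with kinase-NanoLuc fusion plasmid for 22-24 h, then incubated with compound and NanoBRET tracer for 1 hour at 37° C. After substrate plus extracellular NanoLuc inhibitor addition, 460 and 600 nm emissions read; no-tracer-corrected BRET ratio used to derive IC50 values.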

Sequence of AKT (P31749 whole entry): as the sequence (P31749 whole entry, the tested form may be a part) above

IC50 (AKT): 0.0121 µM
IC50 [1]: 28.5 µM
SMILES: Cc1cc(-c2ccnc3[nH]cc(C#N)c23)ccc1[C@@]1(O)[C@H](C)CN(C2CCS(=O)(=O)CC2)C[C@@H]1C [Compound 2003, 4-(4-((3S,4s,5R)-1-(1,1-dioxidotetrahydro-2H-thiopyran-4-yl)-4-hydroxy-3,5-dimethylpiperidin-4-yl)-3-methylphenyl)-1H-pyrrolo[2,3-b]pyridine-3-carbonitrile]
